26 molecules from patent EP2790511B1 (Merck Sharp & Dohme Corp., priority 2011, dated 2013) can be followed below.

The structures appear in SMILES notation. Read-outs that look alike come from different tables or passages of the source.

The target in the test is T1, hROMK (hKir1.1) (Homo sapiens, UniProt P48048).
T1 construct: expressed in transfected cells
T1 sequence (P48048 1-391): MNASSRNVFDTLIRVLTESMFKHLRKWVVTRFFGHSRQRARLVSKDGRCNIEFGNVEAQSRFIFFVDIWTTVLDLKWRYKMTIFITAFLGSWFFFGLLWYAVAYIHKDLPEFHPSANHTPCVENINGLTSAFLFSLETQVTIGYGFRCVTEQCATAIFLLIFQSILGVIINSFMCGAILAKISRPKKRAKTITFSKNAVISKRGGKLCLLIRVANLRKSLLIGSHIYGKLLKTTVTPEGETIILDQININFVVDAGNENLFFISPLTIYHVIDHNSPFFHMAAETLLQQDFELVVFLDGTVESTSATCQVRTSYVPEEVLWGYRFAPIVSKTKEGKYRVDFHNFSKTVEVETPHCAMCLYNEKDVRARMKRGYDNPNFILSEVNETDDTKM
As to the kind of experiment: Thallium Flux Assay. It counts as cell-based. In short, it runs like this:
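HEK293 cells stably expressing hROMK, loaded with FluxOR dye 90 min at ambient temperature, then compound 30 min with 0.3 mM ouabain in probenecid buffer pH 7.4.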

Setting [1] is: HEK293 cells stably expressing hROMK (hKir1.1), FLIPR-Tetra, read-out: Thallium Flux IC50.

By IC50 is commonly meant the midpoint of a concentration-inhibition curve. `Cc1c([C@@H]2CN3CCN(C(=O)Cc4ncc(-n5cnnn5)cc4Cl)C[C@@H]3CO2)ccc(F)c1C#N` [Example 154, 3-[(3R,9aR)-8-{[3-chloro-5-(1H-tetrazol-1-yl)pyridin-2-yl]acetyl}octahydropyrazino[2,1-c][1,4]oxazin-3-yl]-6-fluoro-2-methylbenzonitrile]: the midpoint of inhibition (Thallium Flux IC50), the IC50, lay at 200 nM.

As to `Cc1c([C@H]2CN3CCN(C(=O)Cc4ccc(-n5cnnn5)nn4)C[C@H]3CO2)ccc(F)c1C#N` [Example 155, 6-fluoro-2-methyl-3-[(3S,9aS)-8-{[6-(1H-tetrazol-1-yl)pyridazin-3-yl]acetyl}octahydropyrazino [2,1-c][1,4]oxazin-3-yl]benzonitrile], the IC50 under setting [1] amounted to 300 nM.

In the case of `Cc1c([C@@H]2CN3CCN(C(=O)Cc4ccc(-n5cnnn5)nn4)C[C@@H]3CO2)ccc(F)c1C#N` [Example 156, 6-fluoro-2-methyl-3-[(3R,9aR)-8-{[6-(1H-tetrazol-1-yl)pyridazin-3-yl]acetyl}octahydropyrazino [2,1-c][1,4]oxazin-3-yl]benzonitrile], the IC50 (Thallium Flux IC50) was determined as 210 nM.

As for `Cc1c([C@H]2CN3CCN(C(=O)Cc4cnc(-n5cnnn5)nc4C(F)(F)F)C[C@H]3CO2)ccc(F)c1C#N` [Example 158, 6-fluoro-2-methyl-3-[(3S,9aS)-8-{[2-(1H-tetrazol-1-yl)-4-(trifluoromethyl)pyrimidin-5-yl]acetyl}octahydropyrazino[2,1-c][1,4]oxazin-3-yl]benzonitrile], under setting [1], the IC50 amounted to 200 nM.

Turning to `Cc1c([C@@H]2CN3CCN(C(=O)Cc4cnc(-n5cnnn5)nc4C(F)(F)F)C[C@H]3CO2)ccc(F)c1C#N` [Example 159, 6-fluoro-2-methyl-3-[(3R,9aS)-8-{[2-(1H-tetrazol-1-yl)-4-(trifluoromethyl)pyrimidin-5-yl]acetyl}octahydropyrazino[2,1-c][1,4]oxazin-3-yl]benzonitrile], under setting [1], the IC50 turned out to be 260 nM.

As for `Cc1c([C@H]2CN3CCN(C(=O)Cc4cccc(-n5cnnn5)n4)C[C@@H]3CO2)ccc(F)c1C#N` [Example 160, 6-fluoro-2-methyl-3-[(3S,9aR)-8-{[6-(1H-tetrazol-1-yl)pyridin-2-yl]acetyl}octahydropyrazino[2,1-c][1,4]oxazin-3-yl]benzonitrile], the IC50 under setting [1] is 390 nM.

For `Cc1c([C@@H]2CN3CCN(C(=O)Cc4cccc(-n5cnnn5)n4)C[C@@H]3CO2)ccc(F)c1C#N` [Example 161, 6-fluoro-2-methyl-3-[(3R,9aR)-8-{[6-(1H-tetrazol-1-yl)pyridin-2-yl]acetyl}octahydropyrazino[2,1-c][1,4]oxazin-3-yl]benzonitrile], the IC50 under setting [1] was found to be 350 nM.

Turning to `Cc1c([C@@H]2CN3CCN(C(=O)Cc4ccc(-n5nnnc5C)cn4)C[C@H]3CO2)ccc(F)c1C#N` [Example 162, 6-fluoro-2-methyl-3-[(3R,9aS)-8-{[5-(5-methyl-1H-tetrazol-1-vl)pvridin-2-yl]acetyl}octahydropyrazino[2,1-c][1,4]oxazin-3-yl]benzonitrile], the midpoint of inhibition (Thallium Flux IC50), the IC50, lay at 170 nM.

Turning to `Cc1c([C@@H]2CN3CCN(C(=O)Cc4ccc(-n5cnnn5)nc4)C[C@H]3CS2)ccc2c1COC2=O` [Example 166, 4-methyl-5-[(3R,9aS)-8-{[6-(1H-tetrazol-1-yl)pyridin-3-yl]acetyl}octahydropyrazino[2,1-c][1,4]thiazin-3-yl]-2-benzofuran-1(3H)-one], under setting [1], the IC50 was 380 nM.

As for `Cc1c([C@H]2CN3CCN(C(=O)Cc4ccc(-n5cnnn5)nc4)C[C@H]3CS2)ccc2c1COC2=O` [Example 167, 4-methyl-5-[(3S,9aS)-8-{[6-(1H-tetrazol-1-yl)pyridin-3-yl]acetyl}octahydropyrazino[2,1-c][1,4]thiazin-3-yl]-2-benzofuran-1(3H)-one], the IC50 under setting [1] was 420 nM.

For the molecule `COc1cc(F)c([C@@H]2CN3CCN(C(=O)Cc4cnc(-n5cnnn5)nc4)C[C@H]3CO2)cc1C#N` [Example 168, 4-fluoro-2-methoxy-5-[(3R,9aS)-8-{[2-(1H-tetrazol-1-yl)pyrimidin-5-yl]acetyl}octahydropyrazino[2,1-c][1,4]oxazin-3-yl]benzonitrile], under setting [1], the IC50 was found to be 350 nM.

Take `Cc1cc([C@H]2CN3CCN(C(=O)Cc4ccc(-n5cnnn5)nc4)C[C@@H]3CO2)c(C)c(C#N)c1F` [Example 173, 2-fluoro-3,6-dimethyl-5-[(3S,9aR)-8-{[6-(1H-tetrazol-1-vl)pvridin-3-yl]acetyl}octahydropyrazino[2,1-c][1,4]oxazin-3-yl]benzonitrile]: the IC50 under setting [1] was found to be 300 nM.

As to `Cc1cc([C@@H]2CN3CCN(C(=O)Cc4ccc(-n5cnnn5)nc4)C[C@@H]3CO2)c(C)c(C#N)c1F` [Example 174, 2-fluoro-3,6-dimethyl-5-[(3R,9aR)-8-{[6-(1H-tetrazol-1-vl)pvridin-3-yl]acetyl}octahydropyrazino[2,1-c][1,4]oxazin-3-yl]benzonitrile], the IC50 under setting [1] turned out to be 350 nM.

`O=C(Cc1cnc(-n2cnnn2)nc1)N1CCN2C[C@@H](c3ccc4nonc4c3)OC[C@@H]2C1` [Example 175, (3R,9aS)-3-(2,1,3-benzoxadiazol-5-yl)-8-{[2-(1H-tetrazol-1-vl)pvrimidin-5-yl]acetyl}octahydropyrazino[2,1-c][1,4]oxazine]: under setting [1], the IC50 stood at 530 nM.

With `Cc1c([C@H]2CN3CCN(C(=O)Cc4ccc(-n5cnnn5)nc4)C[C@H]3CO2)ccc2nonc12` [Example 176, (3S,9aS)-3-(4-methyl-2,1,3-benzoxadiazol-5-yl)-8-{[6-(1H-tetrazol-1-yl)pyridin-3-yl]acetyl}octahydropyrazino[2,1-c][1,4]oxazine], the IC50 under setting [1] was determined as 200 nM.

Take `Cc1c([C@@H]2CN3CCN(C(=O)Cc4ccc(-n5cnnn5)nc4)C[C@H]3CO2)ccc2nonc12` [Example 177, (3R,9aS)-3-(4-methyl-2,1,3-benzoxadiazol-5-yl)-8-{[6-(1H-tetrazol-1-yl)pyridin-3-yl]acetyl}octahydropyrazino[2,1-c][1,4]oxazine]: under setting [1], the IC50 worked out at 250 nM.

`O=C(Cc1ccc(-n2cnnn2)cn1)N1CCN2C[C@@H](c3ccc4nonc4c3)OC[C@@H]2C1` [Example 178, (3R,9aS)-3-(2,1,3-benzoxadiazol-5-yl)-8-{[5-(1H-tetrazol-1-vl)pvridin-2-yl]acetyl}octahydropyrazino[2,1-c][1,4]oxazine]: under setting [1], the IC50 turned out to be 350 nM.

Regarding `O=C(Cc1ccc(-n2cnnn2)nc1)N1CCN2C[C@@H](c3ccc4nonc4c3)OC[C@@H]2C1` [Example 179, (3R,9aS)-3-(2,1,3-benzoxadiazol-5-yl)-8-{[6-(1H-tetrazol-1-vl)pvridin-3-yl]acetyl}octahydropyrazino[2,1-c][1,4]oxazine], the IC50 (Thallium Flux IC50) was found to be 180 nM.

Under “Thallium Flux IC50”, `O=C(Cc1ccc(-n2cnnn2)nc1)N1CCN2C[C@H](c3ccc4nonc4c3)OC[C@@H]2C1` [Example 180, (3S,9aS)-3-(2,1,3-benzoxadiazol-5-yl)-8-{[6-(1H-tetrazol-1-vl)pvridin-3-yl]acetyl}octahydropyrazino[2,1-c][1,4]oxazine] displayed an IC50 of 590 nM.

Where the note is “Thallium Flux IC50”, `N#Cc1c(F)ccc([C@H]2CN3CCN(C(=O)Cc4ccc(-n5cnnn5)nc4)C[C@H]3CO2)c1C1CC1` [Example 181, 2-cyclopropyl-6-fluoro-3-[(3S,9aS)-8-{[6-(1H-tetrazol-1-vl)pvridin-3-yl]acetyl}octahydropyrazino[2,1-c][1,4]oxazin-3-yl]benzonitrile] showed an IC50 of 380 nM.

In the case of `Cc1c([C@H]2CN3CCN(C(=O)Cc4ccc(-n5cnnn5)nc4)C[C@H]3CS2)ccc(F)c1C#N` [Example 185, 6-fluoro-2-methyl-3-[(3S,9aS)-8-{[6-(1H-tetrazol-1-yl)pyridin-3-yl]acetyl}octahydropyrazino[2,1-c][1,4]thiazin-3-yl]benzonitrile], under setting [1], the IC50 was 180 nM.

Take `Cc1c([C@H]2CN3CCN(C(=O)Cc4ccc(-n5cnnn5)cn4)C[C@H]3CS2)ccc(F)c1C#N` [Example 186]: under setting [1], the IC50 turned out to be 270 nM.

Under “Thallium Flux IC50”, `Cc1c([C@H]2CN3CCN(C(=O)Cc4ccc(-n5cnnn5)nc4)C[C@H]3CS2(=O)=O)ccc(F)c1C#N` [Example 187, 3-[(3S,9aS)-2,2-dioxido-8-{[6-(1H-tetrazol-1-yl)pyridin-3-yl]acetyl}octahydropyrazino[2,1-c][1,4]thiazin-3-yl]-6-fluoro-2-methylbenzonitrile] came in with an IC50 of 280 nM.

Regarding `Cc1c([C@H]2CN3CCN(C(=O)C(F)(F)c4cnc(-n5cnnn5)nc4)C[C@H]3CO2)ccc(F)c1C#N` [Example 188, 3-((3S,9aS)-8-(2-(2-(1H-tetrazol-1-yl)pyrimidin-5-yl)-2,2-difluoroacetyl)octahydropyrazino[2,1-c][1,4]oxazin-3-yl)-6-fluoro-2-methylbenzonitrile], under setting [1], the IC50 came out at 350 nM.

Consider `Cc1c([C@H]2CN3CCN(C(=O)Cc4cnc(-n5cnnn5)nc4)C[C@H]3CN2)ccc(F)c1C#N` [Example 189, 3-((3S,9aR)-8-(2-(2-(1H-tetrazol-1-yl)pyrimidin-5-yl)acetyl)octahydro-1H-pyrazino[1,2-a]pyrazin-3-yl)-6-fluoro-2-methylbenzonitrile], for which the IC50 under setting [1] was determined as 120 nM.

Regarding `Cc1c([C@H]2CN3CCN(C(=O)Cc4ccc(-n5cnnn5)nc4)C[C@H]3CN2)ccc2c1COC2=O` [Example 190, 4-methyl-5-[(3S,9aR)-8-{[6-(1H-tetrazol-1-yl)pyridin-3-yl]acetyl}octahydro-2H-pyrazino[1,2-a]pyrazin-3-yl]-2-benzofuran-1(3H)-one], under setting [1], the IC50 is 390 nM.
